{"source": "patent US20110207655A1", "about": "“CYCLIC DEPSIPEPTIDE COMPOUND AND USE THEREOF” (Astellas Pharma Inc., priority 2008, published 2011)", "key": {"[1]": {"system": "LTD4-induced airway contraction", "assay": "Action on the LTD4-induced airway contraction response by intratracheal administration", "type": "in vivo, Hartley male guinea pigs", "settings": "guinea pigs", "method": "Hartley male guinea pigs (Japan SLC, Inc.) were used in experiments. Urethane (1.2 g/kg) was administered intraperitoneally to the guinea pigs for anesthesia. Using needles (30 G), the test compounds (0.3, 1, and 3 μg/kg) at a volume of 0.5 mL/kg or physiological saline was administered by intratracheal injection (3 animals in each group). Cannulation for intravenous administration was carried out in the external jugular vein of the guinea pigs. A tracheostomy cannula was inserted through an incision in the trachea and mechanical ventilation (10 mL/kg, 60 times/min) was carried out using a mechanical ventilator (MODEL683, HARVARD). The mechanical ventilator circuit was connected with a pressure transducer (TP-400T, Nihon Kohden Corporation) and the change in airway pressure was measured. The airway pressure signal was amplified with a strain pressure amplifier (AP-601G, Nihon Kohden Corporation) and recorded on chart paper by a thermal pen recorder (LINEARCORDER F WR3701, Graphtec). The body temperature of the guinea pigs was maintained at 37° C. using a body temperature-maintaining device (BWT-100, Bio Research Center). At 30 minutes after injection by intratracheal administration of the test compound, a solution of LTD4 in physiological saline (0.3 μg/kg) was administered intravenously to induce the airway contraction response."}, "blood pressure": {"system": "blood pressure", "settings": "intravenous 30 μg/kg, Non-Patent Citation 4; cited from earlier work"}, "[2]": {"system": "methacholine-induced airway contraction", "assay": "Inhibitory action of intratracheal administration on the methacholine-induced airway contraction", "type": "in vivo, SD male rats", "settings": "rats; for airway contraction inhibitory rate: 1 hour before methacholine 30 μg/kg i.v., vs saline group", "method": "SD male rats (Charles River Laboratories Japan, Inc.) were used in experiments. Urethane (1.2 g/kg) was administered intraperitoneally to the rats for anesthesia. Using a metal canula for intratracheal administration, test compounds (0.3, 1, and 3 μg/kg) or physiological saline was administered intratracheally (3 or 4 animals) at a volume of 0.5 mL/kg. Cannulation for intravenous administration was carried out in the external jugular vein of the rats. A tracheostomy cannula was inserted through an incision in the trachea and mechanical ventilation (10 mL/kg, 90 times/min) was carried out using a Breathing Analysis Computer System (flexiVent, SCIREQ Inc.). The mechanical ventilator circuit was connected with a pressure transducer (TP-400T, Nihon Kohden Corporation) and the change in airway pressure was measured. The airway pressure signal was amplified with a strain pressure amplifier (AP-601G, Nihon Kohden Corporation) and recorded on chart paper by a thermal pen recorder (WT-685G, Nihon Kohden Corporation, or LINEARCORDER F WR3701, Graphtec). The body temperature of the rats was maintained at 37° C. using a body temperature-maintaining device (BWT-100, Bio Research\nCenter). At 1 hour after intratracheal administration of the test compound, a solution of acetyl-β-methacholine chloride in physiological saline (30 μg/kg, acetylcholine β-methacholine chloride=manufactured by SIGMA Co.) was administered intravenously to induce the airway contraction response. The airway contraction inhibitory rate of the test compound was calculated by comparing the airway pressure increase rate (%) with one obtained by intratracheal administration of physiological saline, and ED50 values were determined."}}, "note": "Starred links: 1 amine or outer side, 2 acyl side, 3 side chain; linkers in the order of their positions; H or OH if unused. Positions of bridges follow the written chain, without caps; N, C: chain ends. Non-standard residues stand in square brackets, D forms with d. Residues, ends and D or L forms follow the SMILES beside them. Leu(3R-O(AcLeu(3R-OH))) = CC(=O)N[C@H](C(=O)O[C@H](C(C)C)[C@H](N)C(=O)O)[C@H](O)C(C)C; X1 = CO[C@H](C)C(C(=O)[*:2])N(C)[*:1]; dPhLac = O=C(O)[C@H](O)Cc1ccccc1; NMeA = CN[C@@H](C)C(=O)O; NMeDha = C=C(NC)C(=O)O", "data": [{"smiles": "C=C1C(=O)N[C@@H](C)C(=O)N(C)[C@@H](C)C(=O)N[C@@H]([C@H](OC(=O)[C@@H](NC(C)=O)[C@H](O)C(C)C)C(C)C)C(=O)N(C)C([C@@H](C)OC)C(=O)O[C@H](C)[C@H](NC(C)=O)C(=O)O[C@H](Cc2ccccc2)C(=O)N1C", "note": "(stereo partly drawn) [Ref 1] (Ac-T[dPhLac][NMeDha]A[NMeA][Leu(3R-O(AcLeu(3R-OH)))][X1]; ester 1-C)", "values": [{"measurement": "ED50", "setting": "[1]; Cavia porcellus, iv, intratracheal, 30 minutes before LTD4 0.3 μg/kg i.v., read-out: ED50 value of inhibition of LTD4-induced airway contraction", "value": 1.1, "unit": "µg/kg"}, {"measurement": "LTD4-induced airway contraction response", "setting": "[1]; intratracheal administration", "value": "inhibited"}, {"measurement": "hypotensive action", "setting": "blood pressure", "value": "hypotensive action"}, {"measurement": "ED50", "setting": "[2]; Rattus norvegicus, intratracheal, calculated from three points, read-out: ED50 value of inhibition of methacholine-induced airway contraction", "value": 0.73, "unit": "µg/kg"}, {"measurement": "airway contraction inhibitory rate", "setting": "[2]; intratracheal 0.3 μg/kg", "value": 32, "unit": "%"}, {"measurement": "airway contraction inhibitory rate", "setting": "[2]; intratracheal 1 μg/kg", "value": 45, "unit": "%"}, {"measurement": "airway contraction inhibitory rate", "setting": "[2]; intratracheal 3 μg/kg", "value": 98, "unit": "%"}]}]}
